Measurements published in paper PMC7997578, “Design, Synthesis, Dynamic Docking, Biochemical Characterization, and in Vivo Pharmacokinetics Studies of Novel Topoisomerase II Poisons with Promising Antiproliferative Activity” (Journal of Medicinal Chemistry, 2020).
Like-named read-outs stand apart in the source and are kept apart here.

What was measured:
HeLa cells = assay: cell viability MTT assay, HeLa; type: cell-based, human; details: HeLa cervical cancer cells, mean ± SD of two experiments, read-out: HeLa antiproliferative activity IC50
Protocol: (§1) The antiproliferative activity of all compounds was evaluated in (i) DU145, an androgen-independent prostate cancer cell line; (ii) HeLa, a cervical cancer cell line; and (iii) A549, a lung adenocarcinoma cell line (Table 1). […] Undoubtedly, this preliminary cytotoxicity data will need further characterization, also in relation to the in vitro activity of these compounds.
(§2) Human cancer cell lines A549 (lung adenocarcinoma, ATCC CCL-185), DU-145 (androgen-independent prostate cancer, ATCC HTB-81), and HeLa (cervical carcinoma, ATCC CCL-2) were obtained from ATCC. Cells were routinely grown in minimal essential medium containing Eagle’s salts and L-glutamine supplemented with 10% heat-inactivated FBS in a humidified atmosphere of 5% CO2 at 37 °C. To assess the antiproliferative activity of the compounds, cells were seeded at a density of 2500 cells/well (HeLa) or 5000 cells/well (A549, DU-145) in 96-well plates, and cell viability was measured using the MTT assay as described previously.[39] Values are reported as the mean ± SD of two independent experiments.

[1] = aqueous kinetic solubility; type: physicochemical; details: PBS, pH 7.4, PBS pH 7.4, target 250 µM, 2.5% DMSO, 25°C
Protocol: 1. In vitro m etabolic stabili ty
In vitro microsomial stability. 10mM DMSO stock solution of test compound was pre-incubated at 37 °C for 15min with mouse liver microsomes added 0.1M Tris-HCl buffer (pH 7.4). The final concentration was 4.6µM. After pre -incubation, the co-factors (NADPH, G6P, G6PDH and MgCl2 pre-dissolved in 0.1M Tris-HCl) were added to the incubation mixture and the incubation was continued at 37 °C for 1h. At each time point (0, 5, 15, 30, 60min), 30µL of incubation mixture was diluted with 200µL cold CH 3CN spiked with 200n M of internal standard, followed by centrifugation at 3500g for 15min. The supernatant was further diluted with H2O (1:1) for analysis. The concentration of test compound was quantified by LC/MS-MS on a Waters ACQUITY UPLC/M S TQD system consisting of a TQD (Triple Quadrupole Detector) Mass Spectrometer equipped with an Electrospray Ionization interface. The analyses were run on an ACQUITY UPLC BEH C18 (50x2.1mmID, particle size 1.7µm) with a VanGuard BEH C18 pre -column (5x2.1mmID, particle size 1.7µm) at 40°C, using 0.1% HCOOH in H 2O (A) and 0.1% HCOOH in CH 3CN (B) as mobile phase. Electrospray ionization (ESI) was app lied in positive mode . The percentage of test compound remaining at each time point relative to t=0 was calculated. The half -lives (t½) were determined by an one-phase decay equation using a non -linear regression of compound concentration versus time.
In vitro Plasma Stability. 10mM DMSO stock solution of test compound was diluted 50 -fold with DMSO-H2O (1:1) and incubated at 37 °C for 2 h with mouse plasma added 5% DMSO (pre-heated at 37 °C for 10 min). The final concentration was 2µM. At each time point (0, 5, 15, 30, 60, 120min), 50 µL of incubation mixture was diluted with 200µL cold CH3CN spiked with 200nM of internal standard, followed by centrifugation at 3500g for 20min. The supernatant was further diluted with H2O (1:1) for analysis. The concentration of test compound was quantified by LC/MS-MS on a Waters ACQUITY UPLC/MS TQD system consisting of a TQD (Triple Quadrupole Detector) Mass Spectrometer equipped with an Electrospray Ionization interface. The analyses were run on an ACQUITY UPLC BEH C18 (50x2.1mmID, particle size 1.7µm) with a VanGuard BEH C18 pre - column (5x2.1mmID, particle size 1.7µm) at 40°C, using 0.1% HCOOH in H2O (A) and 0.1% HCOOH in CH3CN (B) as mobile phase. Electrospray ionization (ESI) was applied in positive mode.
The response factors, calculated on the basis of the internal standard peak area, were plotted over time. When possible, response vs. time profiles were fitted with Prism (GraphPad Software, Inc., USA) to estimate compounds half-life in plasma.
2. Aqueous ki netic solu bili ty
The aqueous kinetic solubility was determined from a 10mM DMSO stock solution of test compound in Phosphate Buffered Saline (PBS) at pH 7.4. The study was performed by incubation of an aliquot of 10mM DMSO stock solution in PBS (pH 7.4) at a target concentration of 250µM resulting in a final concentration of 2.5% DMSO. The incubation was carried out under shaking at 25°C for 24h followed by centrifugation at 21.100g for 30min. The supernatant was analyzed by UPLC/MS for the quantification of dissolved compound by UV at a specific wavelength (215nm).
The analyses were performed on a Waters ACQUITY UPLC/MS SQD system consisting of a SQD (Single Quadrupole Detector) Mass Spectrometer equipped with Electrospray Ionization interface.
The analyses were run on an ACQUITY UPLC BEH C18 column (50x2.1mmID, particle size 1.7µm) with a VanGuard BEH C18 pre-column (5x2.1mmID, particle size 1.7µm), using 10mM NH4OAc in H2O at pH 5 adjusted with AcOH (A) and 10mM NH4OAc in MeCN-H2O (95:5) at pH 5 (B) as […]

A549 cells = assay: cell viability MTT assay, A549; type: cell-based, human; details: mean ± SD of two experiments, read-out: A549 antiproliferative activity IC50
Protocol: as §1, §2

## O=C(Nc1cccc(OC(F)(F)F)c1)c1c(O)n(-c2ccccc2)c(=S)n(-c2ccccc2)c1=O [3f, 6-Hydroxy-4-oxo-1,3-diphenyl-2-thioxo-N-(3-(trifluoromethoxy)phenyl)-1,2,3,4-tetrahydropyrimidine-5-carboxamide]
HeLa cells
  IC50: 3.8 ± 0.3 µM
HeLa cells; Homo sapiens, HeLa
  IC50: < 5 µM
[1]
  solubility kinetic at 24 h: > 200 µM
A549 cells; A549 lung adenocarcinoma cells
  IC50: 3.1 ± 0.1 µM
A549 cells; Homo sapiens, A549, A549 lung adenocarcinoma cells
  IC50: < 5 µM
